In US5084453A, “1-carboxy-1-vinyloxyimino aminothiazole cephalosporin derivatives” (priority 1988, dated 1992):
≈ marks a conversion by molar mass, not a printed value. Where two headings read alike, the source gives them in different places.

Experiments:
Assay in all cases: in vitro antibacterial activity, agar plate dilution method
Format in all cases: cell-based
A. calcoaceticus No. 4 = details: Acinetobacter calcoaceticus
Procedure: (§1) Now, the in vitro antibacterial activities of the compounds of the present invention against various microorganisms, were measured by the following agar plate dilution method.
(§2) One platinum loopfull of each test microorganism incubated overnight in Mueller Hinton broth, was inoculated to Mueller Hinton agar (MH agaer). Such culture media containing various antibiotics in various concentrations were prepared. After incubation at 37° C. for 16 hours, the minimum inhibitory concentrations (MIC μg/ml) were measured.

E. cloacae 963 = test system: E. cloacae 963
Procedure: as §1, §2

E. cloacae Nek 39* = details: Enterobacter cloacae
Procedure: as §1, §2

E. coli CSH(RE45)* = details: Escherichia coli; 10^6 CFU/ml; β-Lactamase-producing strain; 37° C., 16 hours; read-out: MIC
Procedure: as §1, §2

E. coli CSH2(RK1)* = details: Escherichia coli, 16 h
Procedure: as §1, §2

E. coli GN5482* = details: Escherichia coli, GN5482, 16 h
Procedure: as §1, §2

E. coli NIHJ JC2 = details: Escherichia coli, NIHJJC2; 10^6 CFU/ml; Mueller Hinton agar, 37° C., 16 hours; read-out: MIC
Procedure: as §1, §2

K. oxytoca GN10650* = details: Klebsiella oxytoca
Procedure: as §1, §2

K. pneumoniae No. 42* = details: Klebsiella pneumoniae
Procedure: as §1, §2

K. pneumoniae PC1-602 = details: Klebsiella pneumoniae
Procedure: as §1, §2

M. morganii GN5407* = details: Morganella morganii
Procedure: as §1, §2

P. vulgaris HX-19 = details: Proteus vulgaris
Procedure: as §1, §2

P. vulgaris No. 33* = details: Proteus vulgaris
Procedure: as §1, §2

Ps. aeruginosa AK 109 = details: Pseudomonas aeruginosa
Procedure: as §1, §2

Ps. aeruginosa AKR17 = details: Pseudomonas aeruginosa, AKR17; 10^6 CFU/ml; Mueller Hinton agar, 37° C., 16 hours; read-out: MIC
Procedure: as §1, §2

Ps. aeruginosa IFO3445 = details: Pseudomonas aeruginosa
Procedure: as §1, §2

Ps. cepacia 23 = test system: Ps. cepacia 23
Procedure: as §1, §2

S. aureus 209P NIHJ-JC1 = details: Staphylococcus aureus
Procedure: as §1, §2

S. marcescens IAM 1184 = details: Serratia marcescens
Procedure: as §1, §2

S. marcescens No. 16-2* = details: Serratia marcescens
Procedure: as §1, §2

[1] = NO.4, 10^6 CFU/ml, Mueller Hinton agar, 37° C., 16 hours, read-out: MIC
[2] = Enterobacter cloacae, 963, 16 h
[3] = PC1602, 10^6 CFU/ml, Mueller Hinton agar, 37° C., 16 hours, read-out: MIC
[4] = IAM1184, 10^6 CFU/ml, Mueller Hinton agar, 37° C., 16 hours, read-out: MIC
[5] = 10^6 CFU/ml, β-Lactamase-producing strain, 37° C., 16 hours, read-out: MIC
[6] = GN10650, 10^6 CFU/ml, β-Lactamase-producing strain, 37° C., 16 hours, read-out: MIC
[7] = GN5407, 10^6 CFU/ml, β-Lactamase-producing strain, 37° C., 16 hours, read-out: MIC
[8] = HX19, 10^6 CFU/ml, Mueller Hinton agar, 37° C., 16 hours, read-out: MIC
[9] = Burkholderia cepacia, 23, 10^6 CFU/ml, Mueller Hinton agar, 37° C., 16 hours, read-out: MIC
[10] = 10^6 CFU/ml, Mueller Hinton agar, 37° C., 16 hours, read-out: MIC
[11] = AK109, 10^6 CFU/ml, Mueller Hinton agar, 37° C., 16 hours, read-out: MIC

| SMILES | MIC (A. calcoaceticus No. 4; [1]) [mg/L] | MIC (E. cloacae 963; [2]) [mg/L] | MIC (E. cloacae Nek 39*; 16 h) [mg/L] | MIC (E. coli CSH(RE45)*) [mg/L] | MIC (E. coli CSH2(RK1)*) [mg/L] | MIC (E. coli GN5482*) [mg/L] | MIC (E. coli NIHJ JC2) [mg/L] | MIC (K. oxytoca GN10650*; GN10650, 16 h) [mg/L] | MIC (K. pneumoniae No. 42*; 16 h) [mg/L] | MIC (K. pneumoniae PC1-602; [3]) [mg/L] | MIC (M. morganii GN5407*; GN5407, 16 h) [mg/L] | MIC (P. vulgaris No. 33*; 16 h) [mg/L] | MIC (Ps. aeruginosa AKR17) [mg/L] | MIC (Ps. aeruginosa IFO3445; IFO3445, 16 h) [mg/L] | MIC (Ps. cepacia 23; Burkholderia cepacia, 23, 16 h) [mg/L] | MIC (S. aureus 209P NIHJ-JC1; 16 h) [mg/L] | MIC (S. marcescens IAM 1184; [4]) [mg/L] | MIC (S. marcescens No. 16-2*; 16 h) [mg/L] | MIC (P. vulgaris HX-19; [8]) [mg/L] | MIC (Ps. aeruginosa AK 109; [11]) [mg/L] | also measured |
| --- | --- | --- | --- | --- | --- | --- | --- | --- | --- | --- | --- | --- | --- | --- | --- | --- | --- | --- | --- | --- | --- |
| C=C(O/N=C(\C(=O)N[C@@H]1C(=O)N2C(C(=O)[O-])=C(C[n+]3cccc4c3CCC4)CS[C@H]12)c1csc(N)n1)C(=O)O [Example 2, 7β-[2-(2-aminothiazol-4-yl)-2-(1-carboxy-1-vinyloxyimino)acetamido]-3-(2,3-cychlopenteno-pyridinio)methyl-3-cephem-4-carboxylate (syn-isomer)] | 3.12 (≈ 5.47 µM) | 0.05 (≈ 0.0876 µM) | 0.2 (≈ 0.351 µM) | 0.78 (≈ 1.37 µM) | 0.025 (≈ 0.0438 µM) | 0.1 (≈ 0.175 µM) | 0.05 (≈ 0.0876 µM) | 0.1 (≈ 0.175 µM) | 0.39 (≈ 0.683 µM) | 0.0125 (≈ 0.0219 µM) | 0.025 (≈ 0.0438 µM) | 0.025 (≈ 0.0438 µM) | 100 (≈ 175 µM) | 1.56 (≈ 2.73 µM) | 0.39 (≈ 0.683 µM) | 1.56 (≈ 2.73 µM) | 0.0125 (≈ 0.0219 µM) | 0.78 (≈ 1.37 µM) | – | – | MIC (P. vulgaris HX-19; HX19, 16 h): 0.025 mg/L (≈ 0.0438 µM); MIC (Ps. aeruginosa AK 109; AK109, 16 h): 1.56 mg/L (≈ 2.73 µM) |
| C=C(O/N=C(\C(=O)N[C@@H]1C(=O)N2C(C(=O)O)=C(CSc3nnc(-c4ccc(O)c(O)c4)o3)CS[C@H]12)c1csc(N)n1)C(=O)O [Example 11, disodium 7β-[2-(2-aminothiazol-4-yl)-2-(1-carboxy-1-vinyloxyimino)acetamido]-3-[5-(3,4-dihydroxyphenyl)-1,3,4-oxadiazol-2-yl]thiomethyl-3-cephem-4-carboxylate (syn-isomer)] | – | – | – | 0.05 | < 0.006 | 0.1 | 0.05 | – | – | < 0.006 | – | – | 3.12 | 0.39 | – | – | 0.025 | 0.2 | < 0.006 | – | MIC (A. calcoaceticus No. 4; NO.4, 16 h): 0.1 mg/L; MIC (E. cloacae 963; Enterobacter cloacae, 963, 10^6 CFU/ml, Mueller Hinton agar, 37° C., 16 hours, read-out: MIC): 0.025 mg/L; MIC (E. cloacae Nek 39*; [5]): 0.025 mg/L; MIC (K. oxytoca GN10650*; [6]): 0.025 mg/L; MIC (K. pneumoniae No. 42*; [5]): 0.025 mg/L; MIC (M. morganii GN5407*; [7]): 0.0125 mg/L; MIC (P. vulgaris No. 33*; [5]): 0.0125 mg/L; MIC (Ps. aeruginosa AK 109; AK109, 16 h): 0.2 mg/L; MIC (Ps. cepacia 23; [9]): < 0.006 mg/L; MIC (S. aureus 209P NIHJ-JC1; [10]): 12.5 mg/L |
| CC(C)(O/N=C(\C(=O)N[C@@H]1C(=O)N2C(C(=O)[O-])=C(C[n+]3ccccc3)CS[C@H]12)c1csc(N)n1)C(=O)O [Ceftazidime, reference compound] | – | 0.1 (≈ 0.183 µM) | 1.56 (≈ 2.85 µM) | 0.2 (≈ 0.366 µM) | 0.1 (≈ 0.183 µM) | 1.56 (≈ 2.85 µM) | 0.1 (≈ 0.183 µM) | 0.1 (≈ 0.183 µM) | 0.39 (≈ 0.714 µM) | – | 0.1 (≈ 0.183 µM) | 0.5 (≈ 0.915 µM) | > 100 | 1.56 (≈ 2.85 µM) | 0.78 (≈ 1.43 µM) | 6.25 (≈ 11.4 µM) | – | 1.56 (≈ 2.85 µM) | – | – | MIC (A. calcoaceticus No. 4; NO.4, 16 h): 6.25 mg/L (≈ 11.4 µM); MIC (K. pneumoniae PC1-602; PC1602, 16 h): 0.25 mg/L (≈ 0.457 µM); MIC (P. vulgaris HX-19; HX19, 16 h): 0.025 mg/L (≈ 0.0457 µM); MIC (Ps. aeruginosa AK 109; AK109, 16 h): 0.78 mg/L (≈ 1.43 µM); MIC (S. marcescens IAM 1184; IAM1184, 16 h): < 0.006 mg/L |
| C=C(O/N=C(\C(=O)N[C@@H]1C(=O)N2C(C(=O)O)=C(CSc3nnnn3CC(=O)O)CS[C@H]12)c1csc(N)n1)C(=O)O [Example 20, trisodium 7β-[2-(2-aminothiazol-4-yl)-2-(1-carboxylato-1-vinyloxyimino)acetamido]-3-(1-carboxylatomethyl-1H-tetrazol-5-yl)thiomethyl-3-cephem-4-carboxylate (syn-isomer)] | 100 | 0.39 | – | 0.78 | 0.2 | 1.56 | 0.39 | 0.39 | 0.78 | – | 0.05 | – | > 100 | 6.25 | – | – | – | – | < 0.006 | 12.5 | MIC (E. cloacae Nek 39*; [5]): 3.12 mg/L; MIC (K. pneumoniae PC1-602; PC1602, 16 h): 0.1 mg/L; MIC (P. vulgaris No. 33*; [5]): < 0.006 mg/L; MIC (Ps. cepacia 23; [9]): 3.12 mg/L; MIC (S. aureus 209P NIHJ-JC1; [10]): 25 mg/L; MIC (S. marcescens IAM 1184; IAM1184, 16 h): 0.05 mg/L; MIC (S. marcescens No. 16-2*; [5]): 3.12 mg/L |
| CO/N=C(\C(=O)N[C@@H]1C(=O)N2C(C(=O)O)=C(COC(C)=O)CS[C@H]12)c1csc(N)n1 [Cefotaxime, reference compound] | 25 (≈ 54.9 µM) | 0.05 (≈ 0.11 µM) | 1.56 (≈ 3.43 µM) | 0.1 (≈ 0.22 µM) | 0.0125 (≈ 0.0274 µM) | 0.39 (≈ 0.856 µM) | 0.05 (≈ 0.11 µM) | 0.39 (≈ 0.856 µM) | 0.05 (≈ 0.11 µM) | < 0.006 | 0.05 (≈ 0.11 µM) | 0.025 (≈ 0.0549 µM) | > 100 | – | 6.25 (≈ 13.7 µM) | 1.56 (≈ 3.43 µM) | – | 6.25 (≈ 13.7 µM) | < 0.006 | 12.5 (≈ 27.4 µM) | MIC (Ps. aeruginosa IFO3445; IFO3445, 10^6 CFU/ml, Mueller Hinton agar, 37° C., 16 hours, read-out: MIC): 25 mg/L (≈ 54.9 µM); MIC (S. marcescens IAM 1184; IAM1184, 16 h): 0.0125 mg/L (≈ 0.0274 µM) |
| C=C(O/N=C(\C(=O)N[C@@H]1C(=O)N2C(C(=O)O)=C(CSc3nc(-c4ccc(O)c(O)c4)cs3)CS[C@H]12)c1csc(N)n1)C(=O)O [Example 12, disodium 7β-[2-(2-aminothiazol-4-yl)-2-(1-carboxylato-1-vinyloxyimino)acetamido]-3-[4-(3,4-dihydroxyphenyl)thiazol-2-yl]thiomethyl-3-cephem-4-carboxylate(syn-isomer)] | – | 0.2 | – | 0.025 | 0.025 | 0.39 | 0.39 | – | – | < 0.006 | – | 0.025 | 3.12 | 0.78 | 0.025 | – | 0.05 | 0.39 | < 0.006 | 1.56 | MIC (A. calcoaceticus No. 4; NO.4, 16 h): 0.2 mg/L; MIC (E. cloacae Nek 39*; [5]): 0.1 mg/L; MIC (K. oxytoca GN10650*; [6]): 0.1 mg/L; MIC (K. pneumoniae No. 42*; [5]): 0.05 mg/L; MIC (M. morganii GN5407*; [7]): 0.05 mg/L; MIC (S. aureus 209P NIHJ-JC1; [10]): 3.12 mg/L |
| C=C(O/N=C(\C(=O)N[C@@H]1C(=O)N2C(C(=O)[O-])=C(C[n+]3cccc(N)c3)CS[C@H]12)c1csc(N)n1)C(=O)O [Example 9, sodium 7β-[2-(2-aminothiazol-4-yl)-2-(1-carboxylato-1-vinyloxyimino)acetamido]-3-(3-amino-1-5 pyridinio)methyl 3-cephem-4-carboxylate (syn-isomer)] | 3.12 | 0.05 | 0.78 | 0.0125 | 0.025 | 0.2 | 0.025 | 0.1 | 0.1 | < 0.006 | 0.39 | 0.0125 | > 100 | 0.78 | – | – | < 0.006 | 1.56 | – | 3.12 | MIC (P. vulgaris HX-19; HX19, 16 h): 0.0125 mg/L; MIC (Ps. cepacia 23; [9]): 3.12 mg/L; MIC (S. aureus 209P NIHJ-JC1; [10]): 3.12 mg/L |
| C=C(O/N=C(\C(=O)N[C@@H]1C(=O)N2C(C(=O)[O-])=C(C[n+]3cccc(NC=O)c3)CS[C@H]12)c1csc(N)n1)C(=O)O [Example 10, sodium 7β-[2-(2-aminothiazol-4-yl)-2-(1-carboxylato-1-vinyloxyimino)acetamido]-3-(3-formylamino-1-pyridinio)methyl-3-cephem-4-carboxylate (syn-isomer)] | 3.12 | 0.025 | 0.39 | 0.0125 | 0.0125 | 0.1 | 0.0125 | 0.05 | 0.05 | < 0.006 | 0.0125 | 0.0125 | > 100 | 0.78 | – | 1.56 | < 0.006 | 1.56 | < 0.006 | 3.12 | MIC (Ps. cepacia 23; [9]): 3.12 mg/L |
